In patent US20120214847A1, “2-[1-PHENYL-5-HYDROXY-4a-SUBSTITUTED-HEXAHYDROCYCLOPENTA[F]INDAZOL-5-YL]ETHYL PHENYL DERIVATIVES AS GLUCOCORTICOID RECEPTOR LIGANDS” (Merck Sharp & Dohme Corp., priority 2009, published 2012):

Target: T1, human GR (Homo sapiens, UniProt P04150)
T1 construct: naturally expresses the human GR; endogenous in cells
T1 sequence (P04150 1-777): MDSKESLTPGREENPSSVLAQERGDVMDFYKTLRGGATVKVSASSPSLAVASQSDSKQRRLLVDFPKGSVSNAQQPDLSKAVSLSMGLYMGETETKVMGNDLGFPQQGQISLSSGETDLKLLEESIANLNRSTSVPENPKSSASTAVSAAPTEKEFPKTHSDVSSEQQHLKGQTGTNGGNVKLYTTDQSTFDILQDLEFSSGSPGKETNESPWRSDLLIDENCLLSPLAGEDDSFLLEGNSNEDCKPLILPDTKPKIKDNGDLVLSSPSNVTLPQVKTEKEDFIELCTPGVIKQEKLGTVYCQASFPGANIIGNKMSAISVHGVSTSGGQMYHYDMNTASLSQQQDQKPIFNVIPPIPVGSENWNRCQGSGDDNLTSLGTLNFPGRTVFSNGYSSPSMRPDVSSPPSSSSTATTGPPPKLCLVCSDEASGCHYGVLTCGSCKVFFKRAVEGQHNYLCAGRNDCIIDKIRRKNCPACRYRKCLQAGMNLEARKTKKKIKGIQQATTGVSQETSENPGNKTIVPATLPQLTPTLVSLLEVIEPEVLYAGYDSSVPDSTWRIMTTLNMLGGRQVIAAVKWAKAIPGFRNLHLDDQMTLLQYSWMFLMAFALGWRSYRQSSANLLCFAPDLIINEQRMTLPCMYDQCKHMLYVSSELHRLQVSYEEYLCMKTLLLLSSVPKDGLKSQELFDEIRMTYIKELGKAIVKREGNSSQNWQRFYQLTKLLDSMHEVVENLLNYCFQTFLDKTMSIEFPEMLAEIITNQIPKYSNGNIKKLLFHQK
Experiment: Trans-activation modulation of glucocorticoid receptor (GRAMMER), MMTV-LUC reporter in A549 cells
Assay type: cell-based
Conditions: for Transactivation A549 Cells Grammer Emax (%) / EC50: A549 cells; for EC50: IP = inflection point, read-out: Transactivation A549 Cells Grammer IP

[1] = Emax relative to the activity obtained with 300 nM dexamethasone

Structure (SMILES): CC[C@]12Cc3cnn(-c4ccc(F)cc4)c3C=C1CC[C@@]2(O)CC(O)c1ccc(F)cn1 (single isomer, unassigned) [Example 69b]
- Transactivation A549 Cells Grammer Emax (%) [1]: 26%
- EC50: 113 nM

Structure (SMILES): NC(=O)C(O)c1ccccc1CC[C@]1(O)CCC2=Cc3c(cnn3-c3ccc(F)cc3)C[C@@]21C1CC1 (single isomer, unassigned) [Example 3b]
- Transactivation A549 Cells Grammer Emax (%) [1]: 19%
- EC50: 108 nM

Structure (SMILES): NC(=O)c1ccccc1CC[C@]1(O)CCC2=Cc3c(cnn3-c3ccccc3)C[C@@]21C1CC1 [Example 29, 2-{2-[(4aR,5R)-4a-Cyclopropyl-5-hydroxy-1-phenyl-1,4,4a,5,6,7-hexahydrocyclopenta[f]indazol-5-yl]ethyl}benzamide]
- Emax (A549, A549 cells, Emax relative to the activity obtained with 300 nM dexamethasone, read-out: Transactivation A549 Cells Grammer Emax (%)): 12%
- EC50: 74 nM

Structure (SMILES): CC[C@]12Cc3cnn(-c4ccccc4)c3C=C1CC[C@@]2(O)CC(O)c1ccccn1 (single isomer, unassigned) [Example 67b]
- Transactivation A549 Cells Grammer Emax (%) [1]: 10%
- EC50: 174 nM
